How the values were obtained:
PKR R510Q = PKR R510Q (Homo sapiens, UniProt P30613, R510Q); assay: PKR Mutant Assay, AC50 against PKR R510Q; type: biochemical; settings: mutant PKR R510Q enzyme
How it was run: (§1)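 PK-LDH coupled assay, RT. Enzyme + cpd + PEP/NADH/LDH, 60 min pre-incubation, no ADP. ADP 0.22-1.65 mM to initiate; A340 kinetic read. Cpd 11 pts, 3-fold, 100 μM top.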

PKR WT [1] = target: T1, PKR WT (Homo sapiens, UniProt P30613); assay: PKR WT enzymatic AC50 assay; type: biochemical; settings: wild type PKR
T1 sequence (P30613 whole entry): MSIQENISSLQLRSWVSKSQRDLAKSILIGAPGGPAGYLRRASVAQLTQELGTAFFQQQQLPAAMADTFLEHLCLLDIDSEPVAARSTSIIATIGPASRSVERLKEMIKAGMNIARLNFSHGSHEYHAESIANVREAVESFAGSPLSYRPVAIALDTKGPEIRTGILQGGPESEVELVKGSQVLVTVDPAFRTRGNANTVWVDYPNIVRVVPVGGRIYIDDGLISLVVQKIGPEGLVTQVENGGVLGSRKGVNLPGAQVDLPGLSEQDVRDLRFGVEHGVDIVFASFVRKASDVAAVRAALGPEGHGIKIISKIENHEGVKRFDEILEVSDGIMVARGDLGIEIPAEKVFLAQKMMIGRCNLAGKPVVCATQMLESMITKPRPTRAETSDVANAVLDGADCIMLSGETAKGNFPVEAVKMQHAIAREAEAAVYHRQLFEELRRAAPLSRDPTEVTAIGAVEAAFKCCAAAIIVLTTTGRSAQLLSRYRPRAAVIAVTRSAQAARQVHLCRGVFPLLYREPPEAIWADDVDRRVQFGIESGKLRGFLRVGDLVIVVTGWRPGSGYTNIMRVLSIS
How it was run: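 LDH-coupled NADH depletion read as A340 change at room temperature after ADP (0.22-1.65 mM) start. Compounds, tested from 100 μM final in 3-fold steps over 11 points with 1% DMSO, sat 60 min with enzyme (80-400 ng/well), PEP 0.1-0.5 mM and NADH 180 uM in Tris pH 7.5/KCl/MgCl2/DTT/BSA buffer.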

PKR R532W = PKR R532W (Homo sapiens, UniProt P30613, R532W); assay: PKR Mutant Assay, AC50 against PKR R532W; type: biochemical; settings: mutant PKR R532W enzyme
Chain of PKR R532W (P30613 whole entry R532W): as the sequence (P30613 whole entry) above, with R532W counted along it
How it was run: as §1

PKR WT [2] = target: T1, PKR WT; assay: PKR WT cell based AC50 assay; settings: wild type PKR

Chain of PKR R510Q (P30613 whole entry R510Q): as the sequence (P30613 whole entry) above, with R510Q counted along it

Row | SMILES | AC50 (PKR R510Q) | AC50 (PKR WT [1]) | AC50 (PKR R532W) | AC50 (PKR WT [2])
1 | CCCC1(O)CCN(C(=O)c2ccc(NS(=O)(=O)c3cccc4cccnc34)cc2)CC1 [Compound 183, N-(4-(4-hydroxy-4-propylpiperidine-1-carbonyl)phenyl)quinoline-8-sulfonamide] | 101 to 1000 nM | < 100 nM | < 100 nM | < 100 nM
2 | O=C(c1ccc(NS(=O)(=O)c2cccc3nccnc23)cc1)N1CCC(O)(CCCC(F)F)CC1 [Compound 400, N-(4-(4-(4,4-difluorobutyl)-4-hydroxypiperidine-1-carbonyl)phenyl)quinoxaline-5-sulfonamide] | 101 to 1000 nM | < 100 nM | < 100 nM | < 100 nM
3 | O=C(c1ccc(NS(=O)(=O)c2cccc3cccnc23)cc1)N1CCC(O)(CCC(F)F)CC1 [Compound 204, N-(4-(4-(3,3-difluoropropyl)-4-hydroxypiperidine-1-carbonyl)phenyl)quinoline-8-sulfonamide] | 101 to 1000 nM | < 100 nM | < 100 nM | < 100 nM
4 | CCCCC1(O)CCN(C(=O)c2ccc(NS(=O)(=O)c3cccc4cccnc34)cc2)CC1 [Compound 167, N-(4-(4-butyl-4-hydroxypiperidine-1-carbonyl)phenyl)quinoline-8-sulfonamide] | < 100 nM | < 100 nM | < 100 nM | < 100 nM
5 | O=C(c1ccc(NS(=O)(=O)c2cccc3cccnc23)cc1)N1CCC(O)(c2cnsc2)CC1 [Compound 353] | 101 to 1000 nM | < 100 nM | < 100 nM | < 100 nM
6 | CC(C)CC1(O)CCN(C(=O)c2ccc(NS(=O)(=O)c3cccc4scnc34)cc2)CC1 [Compound 173, N-(4-(4-hydroxy-4-isobutylpiperidine-1-carbonyl)phenyl)benzo[d]thiazole-4-sulfonamide] | < 100 nM | < 100 nM | < 100 nM | < 100 nM
7 | O=C(c1ccc(NS(=O)(=O)c2cccc3c(O)ncnc23)cc1)N1CCC(O)(c2cccc(F)c2F)CC1 [Compound 428] | 101 to 1000 nM | < 100 nM | < 100 nM | < 100 nM
8 | O=C(c1ccc(NS(=O)(=O)c2cccc3cccnc23)cc1)N1CCC(O)(c2ccccc2C(F)F)CC1 [Compound 113, N-[4-[4-[2-(difluoromethyl)phenyl]-4-hydroxy-piperidine-1-carbonyl]phenyl]quinoline-8-sulfonamide] | < 100 nM | < 100 nM | < 100 nM | < 100 nM
9 | COc1cc(NS(=O)(=O)c2cccc3cccnc23)ccc1C(=O)N1CCC(O)(Cc2ccccc2)CC1 [Compound 112, N-(4-(4-benzyl-4-hydroxypiperidine-1-carbonyl)-3-methoxyphenyl)quinoline-8-sulfonamide] | < 100 nM | < 100 nM | < 100 nM | 101 to 1000 nM
10 | CCc1ccccc1C1(O)CCN(C(=O)c2ccc(NS(=O)(=O)c3cccc4cccnc34)cc2)CC1 [Compound 127, N-(4-(4-(2-ethylphenyl)-4-hydroxypiperidine-1-carbonyl)phenyl)quinoline-8-sulfonamide] | < 100 nM | < 100 nM | < 100 nM | < 100 nM
11 | Nc1nc2c(S(=O)(=O)Nc3ccc(C(=O)N4CCC(O)(c5ccccc5Cl)CC4)cc3)cc(F)cc2s1 [Compound 154, 2-amino-N-(4-(4-(2-chlorophenyl)-4-hydroxypiperidine-1-carbonyl)phenyl)-6-fluorobenzo[d]thiazole-4-sulfonamide] | < 100 nM | < 100 nM | < 100 nM | < 100 nM
12 | COc1ncccc1C1(O)CCN(C(=O)c2ccc(NS(=O)(=O)c3cccc4cccnc34)cc2)CC1 [Compound 211, N-(4-(4-hydroxy-4-(2-methoxypyridin-3-yl)piperidine-1-carbonyl)phenyl)quinoline-8-sulfonamide] | 101 to 1000 nM | < 100 nM | < 100 nM | 101 to 1000 nM
13 | O=C(c1ccc(NS(=O)(=O)c2cccc3cc(F)cnc23)cc1)N1CCC(O)(c2ccccc2)CC1 [Compound 218, 3-fluoro-N-(4-(4-hydroxy-4-phenylpiperidine-1-carbonyl)phenyl)quinoline-8-sulfonamide] | 101 to 1000 nM | < 100 nM | < 100 nM | < 100 nM
14 | CC1(CC2(O)CCN(C(=O)c3ccc(NS(=O)(=O)c4cccc5cccnc45)cc3)CC2)CC1 [Compound 121, N-(4-(4-hydroxy-4-((1-methylcyclopropyl)methyl)piperidine-1-carbonyl)phenyl)quinoline-8-sulfonamide] | < 100 nM | < 100 nM | < 100 nM | < 100 nM
15 | Nc1nc2c(S(=O)(=O)Nc3ccc(C(=O)N4CCC(O)(CCCC(F)(F)F)CC4)cc3)cccc2s1 [Compound 420] | < 100 nM | < 100 nM | < 100 nM | < 100 nM
16 | O=C(c1ccc(NS(=O)(=O)c2cccc3cccnc23)cc1)N1CCC(O)(c2ccccc2C(F)(F)F)CC1 [Compound 126, N-(4-(4-hydroxy-4-(2-(trifluoromethyl)phenyl)piperidine-1-carbonyl)phenyl)quinoline-8-sulfonamide] | < 100 nM | < 100 nM | < 100 nM | < 100 nM
17 | O=C(c1ccc(NS(=O)(=O)c2cccc3cccnc23)cc1)N1CCC(O)(Cc2cccc(F)c2F)CC1 [Compound 169, N-(4-(4-(2,3-difluorobenzyl)-4-hydroxypiperidine-1-carbonyl)phenyl)quinoline-8-sulfonamide] | 101 to 1000 nM | < 100 nM | < 100 nM | < 100 nM
18 | O=C(c1ccc(NS(=O)(=O)c2cc(F)cc3cccnc23)cc1)N1CCC(O)(c2ccccc2Cl)CC1 [Compound 223, N-(4-(4-(2-chlorophenyl)-4-hydroxypiperidine-1-carbonyl)phenyl)-6-fluoroquinoline-8-sulfonamide] | 101 to 1000 nM | < 100 nM | < 100 nM | 101 to 1000 nM
19 | O=C(c1ccc(NS(=O)(=O)c2cccc3cccnc23)cc1)N1CCC(O)(Cc2cccc(C(F)(F)F)c2)CC1 [Compound 152, N-(4-(4-hydroxy-4-(3-(trifluoromethyl)benzyl)piperidine-1-carbonyl)phenyl)quinoline-8-sulfonamide] | 101 to 1000 nM | < 100 nM | < 100 nM | 101 to 1000 nM
20 | O=C(c1ccc(NS(=O)(=O)c2cccc3cccnc23)cc1OC(F)F)N1CCC(O)(c2ccccc2Cl)CC1 [Compound 151, N-(4-(4-(2-chlorophenyl)-4-hydroxypiperidine-1-carbonyl)-3-(difluoromethoxy)phenyl)quinoline-8-sulfonamide] | < 100 nM | < 100 nM | < 100 nM | < 100 nM
21 | Cn1nccc1CC1(O)CCN(C(=O)c2ccc(NS(=O)(=O)c3cccc4scnc34)cc2)CC1 [Compound 433] | 101 to 1000 nM | 101 to 1000 nM | < 100 nM | 101 to 1000 nM
22 | O=C(c1ccc(NS(=O)(=O)c2cccc3scnc23)cc1)N1CCC(O)(c2ccccc2Cl)CC1 [Compound 155, N-(4-(4-(2-chlorophenyl)-4-hydroxypiperidine-1-carbonyl)phenyl)benzo[d]thiazole-4-sulfonamide] | 101 to 1000 nM | < 100 nM | < 100 nM | < 100 nM

From patent publication US9108921B2, “Therapeutic compounds and compositions” (AGIOS PHARMACEUTICALS, INC, priority 2014, dated 2015)
